Source: ChEMBL document CHEMBL1143132, “Synthesis and protective effects of coumarin derivatives against oxidative stress induced by doxorubicin” (2008)
Calls of active or inactive are those of the source. No cut-off for these calls is given here.

How the values were obtained:
MCF7 [1] = assay: Antioxidant activity in human MCF7 cells assessed as reduction of H2O2 production at 100 uM; assay type: functional, cell-based
MCF7 [2] = assay: Protective effect against doxorubicin-induced oxidative stress in human MCF7 cells assessed as reduction of ROS level at 25 uM; assay type: functional, cell-based
MCF7 [3] = assay: Cytotoxicity against human MCF7 cells at 100 uM; assay type: functional

| Compound | Activity (MCF7 [1]) | Activity (MCF7 [2]) | Activity (MCF7 [3]) [%] |
| --- | --- | --- | --- |
| Cc1cc(=O)oc2c(O)c(O)ccc12 | Active | Active | – |
| Cc1c(Cl)c(=O)oc2c(O)c(O)ccc12 | Active | – | – |
| CCCCCCCCCCCCSCc1cc(=O)oc2c(OC(C)=O)c(OC(C)=O)ccc12 | Active | – | 70 |
